Tested on: 126254-015-R-J1-PDC complex spheroid growth, % test/control
Assay: Anticancer human tumor 126254-015-R-J1-PDC patient-derived soft tissue sarcoma cell line growth inhibition [Asc]
Settings: for IC50: curve of first compound; for viability, T/C: stronger effect = lower value
Procedure: Multicellular complex tumor spheroid response to apoptosis pathway targeting inhibitors Alrizomadlin, Pelcitoclax, and Dasminapant in combination with a variety of drugs and investigational agents in selected tumor cell lines
The MDM2 inhibitor alrizomadlin, the Bcl-2/Bcl-xL inhibitor pelcitoclax, and the IAPs inhibitor dasminapant were evaluated both individually and in combination with standard of care and investigational anticancer small molecules within a complex spheroid model of solid tumors. . Complex spheroids include a stromal component modeled by human endothelial cells (HUVEC) and fibroblasts modeled by human mesenchymal stem cells (MSCs). The concentration ranges selected for each drug and investigational agent were based upon clinically achievable concentrations if the clinical Cmax of the agent was known.
Compounds. The drugs and investigational agents: alrizomadlin (APG-115; NSC831270), pelcitoclax (APG-1252; NSC835773), dasminapant (APG-1387;NSC834197), TAK-243 (NSC785004), copanlisib (NSC809693), olaparib (NSC753686), talazoparib (NSC767125), cobimetinib (NSC 768068), eltanexor (KPT-8602, NSC 794443), abemaciclib (NSC 768073), sotorasib (NSC818433), adagrasib (NSC 831453), MRTX-1133 (NSC 836407), Iadademestat (ORY1001, NSC 806812), and RMC-4630 (NSC839698), were obtained from the NCI Developmental Therapeutics Program Chemical Repository. The FDA-approved anticancer drug set is available from the Developmental Therapeutics Program at https://dtp.cancer.gov/organization/dscb/obtaining/available plates.htm. […] The stock solutions were prepared in dimethyl sulfoxide (DMSO, Sigma-Aldrich, St. Louis, MO, cat. D2650) at 800-fold the tested concentration and stored at -70 degrees C prior to their use. All drugs and investigational agents were tested over a range starting from a high concentration at or near the clinical Cmax and decreasing in half-log increments. If the clinical Cmax for an agent had not been determined, the highest concentration tested was 10 microM.
The patient-derived cancer (PDC) cell lines include five colon adenocarcinomas: 186277-243-T-J2-PDC, 616215-338-R-J1-PDC, 439559-082-T-J2-PDC, 463943-066-T-J2-PDC, and 519858-162-T-J1-PDC; three pancreatic carcinomas: 323965-272-R-J2-PDC, 521955-158-R6-J3-PDC, and 521955-158-R2-J5-PDC; two uterine sarcomas: 327498-152-R-J2-PDC and 993429-296-R-J1-PDC; two rhabdomyosarcomas: 755483-174-R-J1-PDC and 772245-204-R-J1-PDC; two soft tissue sarcomas: 126254-015-R-J1-PDC and 494315-158-R-J1-PDC; two malignant fibrous histiocytomas: 317291-083-R-J1-PDC and 596521-263-R-J1-PDC; two breast carcinomas: 171881-019-R-J1-PDC and 885512-296-R-J2-PDC; and one ovarian carcinoma: 6556581-035-R-J-PDC were obtained from the NCI PDMR, (https://pdmr.cancer.gov). The established cell lines HSSY-2 synovial sarcoma (RRID:CVCL 8719), SYO-1 synovial sarcoma (RRID:CVCL_7146), MPNST malignant peripheral neural sheath tumor were obtained from the Sloan Kettering Institute. The following established cell lines were purchased from the American Type Culture Collection (ATCC, Manassas, VA), Sor the received from the NCI repository:, PANC-1 pancreatic carcinoma (CRL-1469, RRID:CVCL_0480), OVCAR-5 ovarian carcinoma (RRID:CVCL_1628), OVCAR-8 ovarian carcinoma (RRID:CVCL_1629), , MCF-7 breast carcinoma (CRL-12584, RRID:CVCL_0031), MDA-MB-231 breast carcinoma (CRL-12532, RRID:CVCL_0062), NCI-H1876 small cell lung carcinoma (CRL-5902, RRID:CVCL_1503), NCI-H510A small cell lung carcinoma (HTB-184, RRID:CVCL_1565), NCI-H1417 (CRL-5869, RRID:CVCL_1469), and NCI-H196 small cell lung carcinoma (CRL-5823, RRID:CVCL_1509). Dr. Peter Houghton (Greehey Children's Cancer Research Institute, University of Texas Health Science Center, San Antonio, TX) provided Rh-18 rhabdomyosarcoma (RRID:CVCL_1659). Pooled donor human umbilical vein endothelial cells (HUVEC, Lonza, cat. CC-2519) and human mesenchymal stem cells (hMSC, Lonza, cat. PT-2501) were purchased from Lonza (Walkersville, MD).
Cell Culture. […]
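Further: spheroids exposed to compound for seven days.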
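Wherever viability, T/C is given: 100% = DMSO vehicle control wells.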

For `C=CC(=O)N1CCN(c2nc(=O)n(-c3c(C)ccnc3C(C)C)c3nc(-c4c(O)cccc4F)c(F)cc23)C(C)C1` (stereo not given) + Cc1c(S(C)(=O)=O)c(-c2cc(F)cc(N3CCN(c4ccc(NS(=O)(=O)c5ccc(NC(CCN6CCC(C(=O)OCCCP(=O)(O)O)CC6)CSc6ccccc6)c(S(=O)(=O)C(F)(F)F)c5)cc4)CC3)c2)c(-c2ccc(Cl)cc2)n1C(C)C, the IC50 (second compound 0.1 µM) was > 10 µM, the IC50 (second compound 0.316 µM) was > 10 µM and the IC50 (second compound 1 µM) was > 10 µM. For the same compound, the IC50 (second compound 3.16 µM) was > 10 µM, the IC50 (second compound 10 µM) was > 10 µM and the viability, T/C (second compound 0.1 µM, first compound 0.0316 µM) was 89.8%. The viability, T/C (second compound 0.1 µM, first compound 0.1 µM) was 89.4%, the viability, T/C (second compound 0.1 µM, first compound 0.316 µM) was 95.8% and the viability, T/C (second compound 0.1 µM, first compound 1 µM) was 103%. The viability, T/C (second compound 0.1 µM, first compound 3.16 µM) was 101%, the viability, T/C (second compound 0.1 µM, first compound 10 µM) was 76.3% and the viability, T/C (second compound 0.316 µM, first compound 0.0316 µM) was 90.5%. The viability, T/C (second compound 0.316 µM, first compound 0.1 µM) was 86.2%, the viability, T/C (second compound 0.316 µM, first compound 0.316 µM) was 96.5% and the viability, T/C (second compound 0.316 µM, first compound 1 µM) was 91.2%. For the same compound, the viability, T/C (second compound 0.316 µM, first compound 3.16 µM) was 107%, the viability, T/C (second compound 0.316 µM, first compound 10 µM) was 84.1% and the viability, T/C (second compound 1 µM, first compound 0.0316 µM) was 93.9%. For the same compound, the viability, T/C (second compound 1 µM, first compound 0.1 µM) was 89%, the viability, T/C (second compound 1 µM, first compound 0.316 µM) was 91.2% and the viability, T/C (second compound 1 µM, first compound 1 µM) was 93%. For the same compound, the viability, T/C (second compound 1 µM, first compound 3.16 µM) was 92.8%, the viability, T/C (second compound 1 µM, first compound 10 µM) was 77.6% and the viability, T/C (second compound 3.16 µM, first compound 0.0316 µM) was 83.8%. For the same compound, the viability, T/C (second compound 3.16 µM, first compound 0.1 µM) was 91.5%, the viability, T/C (second compound 3.16 µM, first compound 0.316 µM) was 90.9% and the viability, T/C (second compound 3.16 µM, first compound 1 µM) was 93.2%. It also gave a viability, T/C (second compound 3.16 µM, first compound 3.16 µM) of 101%, a viability, T/C (second compound 3.16 µM, first compound 10 µM) of 78.1% and a viability, T/C (second compound 10 µM, first compound 0.0316 µM) of 91.3%. The viability, T/C (second compound 10 µM, first compound 0.1 µM) was 94.1%, the viability, T/C (second compound 10 µM, first compound 0.316 µM) was 105% and the viability, T/C (second compound 10 µM, first compound 1 µM) was 87%. For the same compound, the viability, T/C (second compound 10 µM, first compound 3.16 µM) was 91.7% and the viability, T/C (second compound 10 µM, first compound 10 µM) was 81.6%.
`CCN1CCN(Cc2ccc(Nc3ncc(F)c(-c4cc(F)c5nc(C)n(C(C)C)c5c4)n3)nc2)CC1` + CCN1C(C(=O)NC23CCC(C(=O)O)(CC2)CC3)C(c2cccc(Cl)c2F)C2(C(=O)Nc3cc(Cl)ccc32)C12CCCCC2 was tested, and the IC50 (second compound 0.03 µM) was > 1 µM, the IC50 (second compound 0.0949 µM) was > 1 µM and the IC50 (second compound 0.3 µM) was > 1 µM. The IC50 (second compound 0.949 µM) was > 1 µM, the IC50 (second compound 3 µM) was > 1 µM and the viability, T/C (second compound 0.03 µM, first compound 0.00316 µM) was 87.6%. For the same compound, the viability, T/C (second compound 0.03 µM, first compound 0.01 µM) was 93.2%, the viability, T/C (second compound 0.03 µM, first compound 0.0316 µM) was 99.5% and the viability, T/C (second compound 0.03 µM, first compound 0.1 µM) was 91.3%. The viability, T/C (second compound 0.03 µM, first compound 0.316 µM) was 105%, the viability, T/C (second compound 0.03 µM, first compound 1 µM) was 109% and the viability, T/C (second compound 0.0949 µM, first compound 0.00316 µM) was 91.2%. It also gave a viability, T/C (second compound 0.0949 µM, first compound 0.01 µM) of 94.9%, a viability, T/C (second compound 0.0949 µM, first compound 0.0316 µM) of 97% and a viability, T/C (second compound 0.0949 µM, first compound 0.1 µM) of 102%. For the same compound, the viability, T/C (second compound 0.0949 µM, first compound 0.316 µM) was 91.3%, the viability, T/C (second compound 0.0949 µM, first compound 1 µM) was 109% and the viability, T/C (second compound 0.3 µM, first compound 0.00316 µM) was 89%. It also gave a viability, T/C (second compound 0.3 µM, first compound 0.01 µM) of 96.9%, a viability, T/C (second compound 0.3 µM, first compound 0.0316 µM) of 96.6% and a viability, T/C (second compound 0.3 µM, first compound 0.1 µM) of 89.8%. The viability, T/C (second compound 0.3 µM, first compound 0.316 µM) was 101%, the viability, T/C (second compound 0.3 µM, first compound 1 µM) was 105% and the viability, T/C (second compound 0.949 µM, first compound 0.00316 µM) was 99.5%. It also gave a viability, T/C (second compound 0.949 µM, first compound 0.01 µM) of 98.3%, a viability, T/C (second compound 0.949 µM, first compound 0.0316 µM) of 92.2% and a viability, T/C (second compound 0.949 µM, first compound 0.1 µM) of 88.8%. The viability, T/C (second compound 0.949 µM, first compound 0.316 µM) was 122%, the viability, T/C (second compound 0.949 µM, first compound 1 µM) was 113% and the viability, T/C (second compound 3 µM, first compound 0.00316 µM) was 96.1%. It also gave a viability, T/C (second compound 3 µM, first compound 0.01 µM) of 93.8%, a viability, T/C (second compound 3 µM, first compound 0.0316 µM) of 96.3% and a viability, T/C (second compound 3 µM, first compound 0.1 µM) of 94.7%. For the same compound, the viability, T/C (second compound 3 µM, first compound 0.316 µM) was 106% and the viability, T/C (second compound 3 µM, first compound 1 µM) was 104%.

— PubChem BioAssay AID1963429 (Molecular Pharmacology Branch, DTP, NCI, 2024)
